Measured values reported in patent publication US7595300B2, “7-quinolyl ketolide antibacterial agents” (priority 2005, dated 2009).
Read-outs that look alike come from different tables or passages of the source.

Assays:
[1] = Skin penetration of topical formulations, Franz static diffusion cells; format: in vitro ADME, human; conditions: first experiment, dibutyl sebacate
Description: The penetration of compound (III) formulated in various vehicles into human skin was determined. Franz static diffusion cells (15 mm diameter orifice, o-ring joint) were mounted on 9-cell manifolds and maintained at a constant temperature by use of re-circulating water baths set at 32° C. These cells have an opening with a nominal area of 1.77 cm^2 and a receptor compartment with a volume ranging between 12 to 14 ml. Each diffusion cell was assembled by placing a disk shaped section of excised human skin (obtained from elective surgery) over the orifice of the receptor (bottom) compartment. A Teflon® O-ring was placed on top of the skin before the donor cap was added (top compartment). This diffusion area was then secured in place by a pinch clamp, ensuring an adequate seal between the donor and receptor compartments. The joint between the donor and receptor compartments of each cell was wrapped with Parafilm® (American Can Company) to prevent evaporation of the receptor phase. Each cell was then filled with the receptor phase consisting of phosphate buffered saline with 0.1% sodium azide and 4% bovine serum albumin (w/w/w) at 32° C. Any air bubbles present under the tissue were removed prior to dosing. […]
Approximately 10 mg/cm^2 of each formulation was dosed onto the tissue surfaces of five cells. […] Samples were analyzed for drug content by LC/MS-MS. […]

[2] = Pharmacokinetics in the mouse, plasma and lung tissue; format: in vivo; conditions: oral gavage 10 mg/kg
Description: The pharmacokinetics of compounds of formula (VIII) and compounds of formula (II) and (III) were measured in the mouse. Compounds were administered either intravenously (i.v.) at 1 mg/kg, or per oral gavage (p.o.) at 10 mg/kg. Plasma samples were taken and analyzed by LC/MS-MS. For lung tissue pharmacokinetics, lungs were removed and homogenized, followed by analyzis by LC/MS-MS.

[3] = tested on: cryopreserved human hepatocytes; conditions: 4 h
From the text: In a second experiment, the hepatotoxicity of compound (III) was estimated using cryopreserved human hepatocytes pooled from four donors, measuring leakage of cellular lactate dehydrogenase (LDH). Each donor was selected for the study based on the activity of cytochrome P450 (phase I) and uridine diphosphoglucuronosyl transferases (phase II). Hepatocytes were initially prepared from human livers by collagenase perfusion and subsequently cryogenically frozen. Viable cryopreserved hepatocytes were enriched in accordance with BD Biosciences Discovery Labware SOP HP-10. Hepatocytes were rapidly thawed, pooled and incubated in Williams' E medium at a density of 2×10^6 cells/ml at 37° C. in an incubator for 30 min. After incubation, the viable cells were separated with 24% Percoll gradient and resuspended in WME at a density of 1×10^6 cells/ml. Initial viability was determined by trypan blue exclusion. Hepatocytes were incubated in a 24-well plate and each well contained 0.25×10^6 cells in 0.5 ml of WME medium. Three wells were used for determination of total LDH activity (cells+media) and the background activity (incubation media only) at the 0 time point. Briefly, a 100 μl aliquot of cell suspensions from these wells was immediately taken and rapidly centrifuged at 14,000 rpm for 15 seconds. The supernatants were transferred to microcentrifuge tubes and stored at ≦4° C. for measurement of LDH activity present in medium at the 0 time point. Another 100 μl aliquot of cell suspension from same wells was removed, mixed with 100 μl of 0.4% Triton and stored at ≦4° C. for measurement of total LDH activity.
Hepatocytes in other wells were incubated with test article at the concentrations of 200, 67, 22, 7.4, 2.5 and 0.82 μM. […] Hepatocytes were exposed to the test substance and the positive control for 4 hours. After incubation, 100 μl aliquots of cell suspensions were taken and rapidly centrifuged at 14,000 rpm for 15 seconds. The supernatants were transferred to microcentrifuge tubes and stored at ≦4° C. for measurement of LDH activity in incubation medium.
LDH activity in both total (medium+cells) and medium was determined by monitoring the enzymatic formation of NADH from NAD^+ in the presence of L-lactic acid. Briefly, post-centrifugation supernatants were diluted 1:40 with phosphate-buffered saline (pH 7.4). A 100 μl aliquot was mixed with 100 μl LDH reagent containing 7.5 mM NAD^+, 50 mM L-lactic acid in 250 mM Tris-HCl buffer (pH 8.9) in a 96-well plate. The increase in fluorescence due to the formation of NADH were kinetically monitored at Ext. 360 nm, Em. 460 nm, using a Fluorescence plate reader. The percent LDH leakage from cells was calculated by comparing incubation medium values with total LDH activity (see Equation below). The cell viability at each concentration of test articles was reported. % LDH leakage=(LDH activity in medium sample/total LDH activity)*100 The data are summarized in Table 17.

CC1CC(N(C)C)C(O)C(O[C@@H]2[C@@H](C)C(=O)[C@](C)(F)C(=O)O[C@H](CCF)[C@@]3(C)OC(=O)N[C@@H]3[C@@H](C)C(=O)[C@H](C)C[C@@]2(C)OC/C=C/c2ccc3cccnc3c2)O1 (some centres unmarked) [Compound (III), 6-O-(1-(7-quinolyl)-3-propenyl)-11-amino-11-deoxy-3-(descladinosyl)-3-oxo-2,15-difluoroerythromycin A-11,12-cyclic carbamate]
Highest dermal penetration [1]: 5.7 % of applied dose
Lung AUC ([2]; mouse lung tissue): 45.9 ug/mL-h
Lung Cmax ([2]; mouse lung tissue): 8700 ng/mL
AUC ([2]; mouse plasma): 16200 ng·h/mL
Cmax ([2]; mouse plasma): 3000 ng/mL
LDH leakage (%) ([3]; 0.82 μM): 6.1 ± 0.63%
Viability (%) ([3]; 0.82 μM): 94 ± 0.63%
LDH leakage (%) ([3]; 2.5 μM): 3.9 ± 2.8%
Viability (%) ([3]; 2.5 μM): 96 ± 2.8%
LDH leakage (%) ([3]; 7.4 μM): 10 ± 2.9%
Viability (%) ([3]; 7.4 μM): 90 ± 2.9%
LDH leakage (%) ([3]; 22 μM): 12 ± 0.74%
Viability (%) ([3]; 22 μM): 88 ± 0.74%
LDH leakage (%) ([3]; 67 μM): 6.7 ± 1.3%
Viability (%) ([3]; 67 μM): 93 ± 1.3%
LDH leakage (%) ([3]; 200 μM): 7.6 ± 4.2%
Viability (%) ([3]; 200 μM): 92 ± 4.2%
